Laboratory results reported in PMC12463027, “KRAS/ABHD17C/ALOX15B Axis Promotes Pancreatic Cancer Progression via Ferroptosis Evasion” (Advanced Science, 2025).

B1: recombinant DCAF10 (natural protein, UniProt Q5QP82 1-559, looked up)
chain: MFPFGPHSPGGDGSAGAGAEEPTPHEGQAAATGPPSPLHPGADATHPPPPARSPRRPGAPSLSPAPRSGELGLPGAPESSTASAPGEPSPPSPPCRRPGPDCRAKSRGRHGLGAGLGGPGARLFGWLKERSLGRGLFVDPARDNFRTMTSLYGSIHPADSVYLSTRTHGAVFNLEYSPDGSVLTVACEQTEVLLFDPISSKHIKTLSEAHEDCVNNIRFLDNRLFATCSDDTTIALWDLRKLNTKVCTLHGHTSWVKNIEYDTNTRLLVTSGFDGNVIIWDTNRYTEDGCPHKKFFHTRFLMRMRLTPDCSKMLISTSSGYLLILHDLDLTKSLEVGSYPILRARRTTSSSDLTTSSSSSGPRVSGSPCHHSDSNSSEKHMSRASQREGVSPRNSLEVVTPEVLGESDHGNCITSLQLHPKGWATLLRCSSNSDDEECTCVYEFQEGAPVRPVSPRCSLRLTHYIEEANVGRGYIKELCFSPDGRMISSPHGYGIRLLGFDKQCSELVDCLPKEASPLRVIRSLYSHNDVVLTTKFSPTHCQIASGCLSGRVSLYQPKF
notes: DCAF10, recombinant

Columns and labels:
p-ABHD17C = biological target: T1, p-ABHD17C (Homo sapiens, UniProt Q6PCB6); assay: SPR (Biacore); co-IP in cells shows disruption of the ABHD17C/ALOX15B interaction; type: binding
T1 sequence (Q6PCB6 1-329): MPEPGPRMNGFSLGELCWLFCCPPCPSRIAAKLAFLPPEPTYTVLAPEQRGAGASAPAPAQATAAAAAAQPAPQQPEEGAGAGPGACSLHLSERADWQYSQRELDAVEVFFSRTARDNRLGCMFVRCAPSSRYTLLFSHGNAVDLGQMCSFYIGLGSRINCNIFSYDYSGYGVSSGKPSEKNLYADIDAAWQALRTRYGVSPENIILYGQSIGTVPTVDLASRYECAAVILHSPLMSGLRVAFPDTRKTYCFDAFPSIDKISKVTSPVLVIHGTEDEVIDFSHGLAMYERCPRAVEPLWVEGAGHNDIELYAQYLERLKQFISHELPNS

[1] = biological target: T2, ALOX15B immobilised for SPR (human, UniProt O15296 1-676); assay: SPR; ALOX15B immobilised on a Series S Sensor Chip, DCAF10 as analyte; details: both partners purified
T2 construct: ALOX15B, human
T2 sequence (looked up): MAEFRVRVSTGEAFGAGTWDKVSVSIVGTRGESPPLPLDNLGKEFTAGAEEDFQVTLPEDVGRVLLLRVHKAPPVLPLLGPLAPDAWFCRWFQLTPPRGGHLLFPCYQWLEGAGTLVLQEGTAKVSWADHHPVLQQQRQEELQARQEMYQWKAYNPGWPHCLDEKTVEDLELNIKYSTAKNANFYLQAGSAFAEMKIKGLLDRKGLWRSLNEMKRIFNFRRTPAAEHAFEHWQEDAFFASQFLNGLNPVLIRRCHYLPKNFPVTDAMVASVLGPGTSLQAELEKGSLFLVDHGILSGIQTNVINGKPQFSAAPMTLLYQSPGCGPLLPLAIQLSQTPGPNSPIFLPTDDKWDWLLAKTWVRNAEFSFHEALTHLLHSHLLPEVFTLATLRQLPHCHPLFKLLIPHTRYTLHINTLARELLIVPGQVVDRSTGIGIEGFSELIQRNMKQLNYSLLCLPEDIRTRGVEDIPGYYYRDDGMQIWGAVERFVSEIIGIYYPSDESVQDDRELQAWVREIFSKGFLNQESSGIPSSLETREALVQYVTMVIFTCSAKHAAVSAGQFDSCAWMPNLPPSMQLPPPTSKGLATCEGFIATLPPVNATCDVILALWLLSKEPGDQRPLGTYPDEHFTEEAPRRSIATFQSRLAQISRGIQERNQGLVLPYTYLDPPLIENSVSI

Molecule | Kd (p-ABHD17C) [nM] | Kd [1] [nM]
CO[C@]1(CC[C@@H](C)CO[C@@H]2O[C@H](CO)[C@@H](O)[C@H](O)[C@H]2O)O[C@H]2C[C@H]3[C@@H]4CC=C5C[C@@H](O[C@@H]6O[C@H](CO)[C@@H](O[C@@H]7O[C@@H](C)[C@H](O)[C@@H](O)[C@H]7O)[C@H](O)[C@H]6O[C@@H]6O[C@@H](C)[C@H](O)[C@@H](O)[C@H]6O)CC[C@]5(C)[C@H]4CC[C@]3(C)[C@H]2[C@@H]1C [methyl protodioscin] | 4800 | 
B1 |  | 6.96
